The values that follow come from patent publication US20140248374A1, “COMPOSITIONS AND MULTI-STEP METHODS OF USING THE SAME FOR THE TREATMENT OF JELLYFISH STINGS” (UNIVERSITY OF HAWAII, priority 2011, published 2014).

In one experiment the test system is hemolytic toxins. The note with it: in the presence of 10 mM D-lactulose; cited from earlier work.
Experiment [1] deals with Chironex fleckeri (the Australian box jellyfish) venom. Kind of experiment: Survival time following lethal doses of venom in mice. It counts as in vivo.
The subject of experiment [2] is human washed red blood cells (RBC, 2%) subjected to Alatina moseri venom. Kind of experiment: Venom-induced hemolysis of washed RBC, 96-well plate, plasma hemoglobin read spectrophotometrically. It counts as cell-based. The conditions noted are these: 1 hour at 37° C., FIG. 1.
Procedure: Using a 96-well plate, human washed red blood cells (RBC, 2%) were subjected to Alatina moseri venom (6.4 U/mL/%). And treated simultaneously with a dose of zinc gluconate administered to a final concentration of from 0 to 25 mM zinc gluconate in combination with a dose of copper gluconate administered to a final concentration of from 0 to 128 μM. At the end of the incubation period, the 96 well plate was centrifuged briefly at 4° C. to pellet red blood cells from plasma. Plasma hemoglobin levels were then determined spectrophotometrically.

Turning to `OC[C@H]1O[C@@H](O[C@@H]2[C@@H](CO)O[C@](O)(CO)[C@H]2O)[C@H](O)[C@@H](O)[C@H]1O` [D-lactulose], the hemolysis entry in the experiment with hemolytic toxins is reported as “dramatic absence of hemolysis”.

Turning to Zinc, the survival time entry in experiment [1] is “increase survival time”. copper gluconate: in experiment [2] (copper gluconate (0 to 128 μM) with between 0 mM and 12.5 mM zinc gluconate), the “inhibition of venom-induced hemolysis” value is “substantially increased the baseline inhibition”. For the same compound, the “hemolysis after exposure to venom” value in experiment [2] (up to 128 μM copper gluconate added to 25 mM zinc gluconate) was “practically eliminated hemolysis”.

With zinc gluconate, the “inhibition of venom-induced hemolysis” value in experiment [2] (zinc gluconate alone (baseline), 2% RBC, Alatina moseri venom 6.4 U/mL/%) was “baseline inhibition of venom-induced hemolysis”.
